Results as given in patent US20100267561A1, “HERBICIDAL PYRIDAZINONE DERIVATIVES” (priority 2007, published 2010).

Legend:
Assay in all cases: Test B pre-/postemergence plant response
Type in all cases: in vivo
corn (Zea mays) = conditions: for Corn plant response rating: 8 g ai/ha
Summary of the method: (§1)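 Preemergence and postemergence (plants 2-18 cm, 1- to 4-leaf stage) applications used test chemicals in a non-phytotoxic solvent with surfactant. Plants were held in a greenhouse 13 to 15 days, then rated visually against controls on a 0-100 scale (0 no effect, 100 complete control).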

[1] = test system: johnsongrass (Sorghum halepense); conditions: for Johnsongrass plant response rating: 8 g ai/ha
Summary of the method: as §1

[2] = test system: velvetleaf (Abutilon theophrasti); conditions: for Velvetleaf plant response rating: 8 g ai/ha
Summary of the method: as §1

[3] = test system: woolly cupgrass (Eriochloa villosa); conditions: for Cupgrass, Woolly plant response rating: 8 g ai/ha
Summary of the method: as §1

[4] = test system: cocklebur (Xanthium strumarium); conditions: for Cocklebur plant response rating: 8 g ai/ha
Summary of the method: as §1

[5] = test system: catchweed bedstraw (Galium aparine); conditions: Preemergence
Summary of the method: as §1

kochia (Kochia scoparia) = conditions: for Kochia plant response rating: 8 g ai/ha
Summary of the method: as §1

wild oat (Avena fatua) = conditions: for Oat, Wild plant response rating: 8 g ai/ha
Summary of the method: as §1

[6] = test system: goosegrass (Eleusine indica); conditions: for Goosegrass plant response rating: 8 g ai/ha
Summary of the method: as §1

[7] = test system: Russian thistle (Salsola iberica); conditions: Preemergence
Summary of the method: as §1

[8] = test system: large crabgrass (Digitaria sanguinalis); conditions: for Crabgrass, Large plant response rating: 8 g ai/ha
Summary of the method: as §1

[9] = test system: common ragweed (Ambrosia elation); conditions: for Ragweed plant response rating: 8 g ai/ha
Summary of the method: as §1

[10] = test system: blackgrass (Alopecurus myosuroides); conditions: for Blackgrass plant response rating: 8 g ai/ha
Summary of the method: as §1

[11] = test system: yellow nutsedge (Cyperus esculentus); conditions: for Nutsedge, Yellow plant response rating: 8 g ai/ha
Summary of the method: as §1

[12] = Postemergence, 16 g ai/ha, scale 0 to 100
[13] = Postemergence, 31 g ai/ha, scale 0 to 100, 0 no effect, 100 complete control
[14] = Postemergence, 62 g ai/ha, scale 0 to 100, 0 no effect, 100 complete control
[15] = Preemergence, 16 g ai/ha, scale 0 to 100 (0 no effect, 100 complete control)
[16] = Preemergence, 31 g ai/ha, 0 to 100 scale, 0 no effect, 100 complete control
[17] = Preemergence, 62 g ai/ha, scale 0 to 100
[18] = Preemergence, 31 g ai/ha, scale 0 to 100 (0 no effect, 100 complete control)

CCc1cc(-c2ccc(Cl)cc2)nn1-c1c(OC(=O)OC(C)C)cnn(C)c1=O [Compound 41]
Corn plant response rating (corn (Zea mays); postemergence, 0-100 scale): 85 | Plant response rating, Corn (corn (Zea mays); [12]): 85 | Plant response rating, Corn (corn (Zea mays); [13]): 95 | Plant response rating, Corn (corn (Zea mays); [14]): 95 | Plant response rating, Corn (corn (Zea mays); [15]): 65 | Plant response rating, Corn (corn (Zea mays); [16]): 85 | Plant response rating, Corn (corn (Zea mays); [17]): 95 | Corn plant response rating (corn (Zea mays); Preemergence, scale 0 to 100): 45 | Johnsongrass plant response rating ([1]; postemergence, 0-100 scale): 50 | Plant response rating, Johnsongrass [1, 12]: 50 | Plant response rating, Johnsongrass [1, 13]: 60 | Plant response rating, Johnsongrass [1, 14]: 75 | Plant response rating, Johnsongrass [1, 15]: 65 | Plant response rating, Johnsongrass [1, 16]: 70 | Plant response rating, Johnsongrass [1, 17]: 95 | Johnsongrass plant response rating ([1]; Preemergence, scale 0 to 100): 20 | Velvetleaf plant response rating ([2]; postemergence, 0-100 scale): 0 | Plant response rating, Velvetleaf [2, 12]: 0 | Plant response rating, Velvetleaf [2, 14]: 0 | Plant response rating, Velvetleaf [2, 15]: 0 | Plant response rating, Velvetleaf [2, 18]: 0 | Plant response rating, Velvetleaf ([2]; Preemergence, 62 g ai/ha, 0 to 100 scale, 0 no effect, 100 complete control): 0 | Velvetleaf plant response rating ([2]; Preemergence, scale 0 to 100): 0 | Cupgrass, Woolly plant response rating ([3]; postemergence, 0-100 scale): 95 | Plant response rating, Cupgrass, Woolly [3, 12]: 100 | Plant response rating, Cupgrass, Woolly [3, 13]: 100 | Plant response rating, Cupgrass, Woolly [3, 14]: 100 | Plant response rating, Cupgrass, Woolly [3, 15]: 0 | Plant response rating, Cupgrass, Woolly [3, 16]: 0 | Plant response rating, Cupgrass, Woolly [3, 17]: 75 | Cupgrass, Woolly plant response rating ([3]; Preemergence, scale 0 to 100): 0 | Cocklebur plant response rating ([4]; postemergence, 0-100 scale): 0 | Plant response rating, Cocklebur [4, 12]: 0 | Plant response rating, Cocklebur [4, 13]: 0 | Plant response rating, Cocklebur [4, 14]: 0 | Plant response rating, Cocklebur [4, 15]: 0 | Plant response rating, Cocklebur [4, 16]: 0 | Plant response rating, Cocklebur [4, 17]: 0 | Cocklebur plant response rating ([4]; Preemergence, scale 0 to 100): 0 | Plant response rating, Galium ([5]; 16 g ai/ha, scale 0 to 100 (0 no effect, 100 complete control)): 0 | Plant response rating, Galium ([5]; 31 g ai/ha, 0 to 100 scale, 0 no effect, 100 complete control): 50 | Plant response rating, Galium ([5]; 62 g ai/ha, scale 0 to 100): 100 | Galium plant response rating ([5]; 8 g ai/ha, scale 0 to 100): 0 | Kochia plant response rating (kochia (Kochia scoparia); postemergence, 0-100 scale): 0 | Plant response rating, Kochia (kochia (Kochia scoparia); [12]): 0 | Plant response rating, Kochia (kochia (Kochia scoparia); [13]): 0 | Plant response rating, Kochia (kochia (Kochia scoparia); [14]): 0 | Plant response rating, Kochia (kochia (Kochia scoparia); [15]): 0 | Plant response rating, Kochia (kochia (Kochia scoparia); [16]): 0 | Plant response rating, Kochia (kochia (Kochia scoparia); [17]): 0 | Kochia plant response rating (kochia (Kochia scoparia); Preemergence, scale 0 to 100): 0 | Oat, Wild plant response rating (wild oat (Avena fatua); postemergence, 0-100 scale): 100 | Plant response rating, Oat, Wild (wild oat (Avena fatua); [12]): 100 | Plant response rating, Oat, Wild (wild oat (Avena fatua); [13]): 100 | Plant response rating, Oat, Wild (wild oat (Avena fatua); [14]): 100 | Plant response rating, Oat, Wild (wild oat (Avena fatua); [15]): 85 | Plant response rating, Oat, Wild (wild oat (Avena fatua); [18]): 95 | Plant response rating, Oat, Wild (wild oat (Avena fatua); [17]): 95 | Oat, Wild plant response rating (wild oat (Avena fatua); Preemergence, scale 0 to 100): 70 | Goosegrass plant response rating ([6]; postemergence, 0-100 scale): 80 | Plant response rating, Goosegrass [6, 12]: 80 | Plant response rating, Goosegrass [6, 13]: 85 | Plant response rating, Goosegrass [6, 14]: 98 | Plant response rating, Goosegrass [6, 15]: 0 | Plant response rating, Goosegrass [6, 16]: 0 | Plant response rating, Goosegrass [6, 17]: 0 | Goosegrass plant response rating ([6]; Preemergence, scale 0 to 100): 0 | Plant response rating, Russian Thistle ([7]; 31 g ai/ha, scale 0 to 100 (0 no effect, 100 complete control)): 0 | Plant response rating, Russian Thistle ([7]; 62 g ai/ha, scale 0 to 100): 0 | Crabgrass, Large plant response rating ([8]; postemergence, 0-100 scale): 70 | Plant response rating, Crabgrass, Large [8, 12]: 85 | Plant response rating, Crabgrass, Large [8, 13]: 100 | Plant response rating, Crabgrass, Large [8, 14]: 100 | Plant response rating, Crabgrass, Large [8, 15]: 0 | Plant response rating, Crabgrass, Large [8, 16]: 0 | Plant response rating, Crabgrass, Large [8, 17]: 20 | Crabgrass, Large plant response rating ([8]; Preemergence, scale 0 to 100): 0 | Ragweed plant response rating ([9]; postemergence, 0-100 scale): 0 | Plant response rating, Ragweed [9, 12]: 0 | Plant response rating, Ragweed [9, 13]: 0 | Plant response rating, Ragweed [9, 14]: 0 | Plant response rating, Ragweed [9, 15]: 0 | Plant response rating, Ragweed [9, 18]: 0 | Plant response rating, Ragweed [9, 17]: 0 | Ragweed plant response rating ([9]; Preemergence, scale 0 to 100): 0 | Blackgrass plant response rating ([10]; postemergence, 0-100 scale): 85 | Plant response rating, Blackgrass [10, 12]: 90 | Plant response rating, Blackgrass [10, 13]: 95 | Plant response rating, Blackgrass [10, 14]: 95 | Plant response rating, Blackgrass [10, 15]: 100 | Plant response rating, Blackgrass [10, 16]: 100 | Plant response rating, Blackgrass [10, 17]: 100 | Blackgrass plant response rating ([10]; Preemergence, scale 0 to 100): 95 | Nutsedge, Yellow plant response rating ([11]; postemergence, 0-100 scale): 0 | Plant response rating, Nutsedge, Yellow [11, 12]: 0 | Plant response rating, Nutsedge, Yellow [11, 13]: 0 | Plant response rating, Nutsedge, Yellow [11, 14]: 0 | Plant response rating, Nutsedge, Yellow [11, 15]: 0 | Plant response rating, Nutsedge, Yellow [11, 18]: 0 | Plant response rating, Nutsedge, Yellow [11, 17]: 0 | Nutsedge, Yellow plant response rating ([11]; Preemergence, scale 0 to 100): 0
